Values of other authors in patent US20070003615A1, “Nanoparticulate clopidogrel and aspirin combination formulations” (Elan Pharma International Limited, priority 2005, published 2007).
Where a name gives a salt, the structure may show the parent alone. Read-outs that look alike come from different tables or passages of the source.

Assays:
[1] = dry air versus contact with moisture
[2] = in vivo
[3] = not given; remark: listed apart in the source

## COC(=O)[C@H](c1ccccc1Cl)N1CCc2sccc2C1 [clopidogrel]
water, pH not stated
  solubility in water: practically insoluble

## CC(=O)Oc1ccccc1C(=O)O [Aspirin, 2-acetoxybenzoic acid]
[1]
  stability in air / moisture: stable in dry air, but gradually hydrolyses in contact with moisture

## COC(=O)[C@H](c1ccccc1Cl)N1CCc2sccc2C1 [Clopidogrel bisulfate, methyl (+)-(S)-α-(2-chorophenyl)-6,7-dihydrothieno[3,2-c]pyridine-5(4H)-acetate sulfate (1:1)]
[2]
  gastric irritation (esophagus and stomach): significant gastric irritation
[3]; patients with acute coronary syndrome
  rate of combined end point of cardiovascular death, MI, or stroke (and with refractory ischemia): decrease the rate
[3]; recent MI, recent stroke, or established arterial disease
  rate of combined end point of new ischemic stroke, new MI, and other vascular death: reduce the rate
Ethyl ether
  solubility in ethyl ether: practically insoluble
methanol
  solubility in methanol: dissolves freely
Methylene chloride
  solubility in methylene chloride: dissolves sparingly
pH 1.0
  solubility at pH 1.0: freely soluble
Water at neutral pH
  solubility in water: practically insoluble
